Test system: LXRα and/or LXRβ
Experiment: LXR/LXRE co-transfection assay (luciferase reporter, CV-1 cells)
Format: cell-based, human
Settings: IC50 or EC50 for LXR (LXRα and/or LXRβ, not distinguished), tested as described in Example 109, CV-1 cells
Summary of the method: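 Transient co-transfection of CV-1 cells with full-length human LXRα or LXRβ plus RXRα expression plasmids and an LXREx1-Tk-luciferase reporter; compounds (10 μM screen, ≤1% DMSO) incubated 20 h at 37 °C. Luminescence read after lysis; EC50/IC50 from 8-point half-log curves, efficacy relative to a high control or DMSO.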

Molecule `COC(=O)CNC(=O)c1ccc(-c2cc(C(F)(F)F)nn2-c2ccccc2Cl)cc1` [Example 1354, methyl N-({4-[1-(2-chlorophenyl)-3-(trifluoromethyl)-1H-pyrazol-5-yl]phenyl}carbonyl)glycinate] has an EC50 of 1000 to 10000 nM.

For `O=C(NC1CCSC1=O)c1ccc(-c2cc(C(F)(F)F)nn2-c2ccccc2Cl)cc1` (centres unmarked) [Example 1355, 4-[1-(2-chlorophenyl)-3-(trifluoromethyl)-1H-pyrazol-5-yl]-N-(2-oxotetrahydro-3-thienyl)benzamide], the EC50 was 1000 to 10000 nM.

`COC(=O)CCNC(=O)c1ccc(-c2cc(C(F)(F)F)nn2-c2ccccc2Cl)cc1` [Example 1356, methyl N-({4-[1-(2-chlorophenyl)-3-(trifluoromethyl)-1H-pyrazol-5-yl]phenyl}carbonyl)-beta-alaninate] was tested, and the EC50 was 1000 to 10000 nM.

`CC(C)(O)c1nn(-c2cccc(Cl)c2F)c(-c2ccc(-c3cccc(S(C)(=O)=O)c3)s2)c1Br` [Example 1357, 2-[4-bromo-1-(3-chloro-2-fluorophenyl)-5-{5-[3-(methylsulfonyl)phenyl]-2-thienyl}-1H-pyrazol-3-yl]propan-2-ol] was tested, and the EC50 was less than 1000 nM.

In the case of `CCc1ccccc1-n1nc(C(C)(C)O)c(Br)c1-c1ccc(-c2cccc(S(C)(=O)=O)c2)s1` [Example 1358, 2-[4-bromo-1-(2-ethylphenyl)-5-{5-[3-(methylsulfonyl)phenyl]-2-thienyl}-1H-pyrazol-3-yl]propan-2-ol], the EC50 is reported as less than 1000 nM.

For `CC(C)(O)c1nn(-c2ccccc2OC(F)(F)F)c(-c2ccc(-c3cccc(S(C)(=O)=O)c3)s2)c1Br` [Example 1359, 2-(4-bromo-5-{5-[3-(methylsulfonyl)phenyl]-2-thienyl)-1-{2-[(trifluoromethyl)oxy]phenyl}-1H-pyrazol-3-yl)propan-2-ol], the EC50 was less than 1000 nM.

`CC(C)(O)c1nn(-c2ccccc2Br)c(-c2ccc(-c3cccc(S(C)(=O)=O)c3)s2)c1Br` [Example 1360, 2-[4-bromo-1-(2-bromophenyl)-5-{5-[3-(methylsulfonyl)phenyl]-2-thienyl}-1H-pyrazol-3-yl]propan-2-ol] showed an EC50 of less than 1000 nM.

Molecule `Cc1c(F)cccc1-n1nc(C(C)(C)O)cc1-c1ccc(-c2cccc(S(C)(=O)=O)c2)s1` [Example 1361, 2-[1-(3-fluoro-2-methylphenyl)-5-{5-[3-(methylsulfonyl)phenyl]-2-thienyl}-1H-pyrazol-3-yl]propan-2-ol] has an EC50 of less than 1000 nM.

`O=C(O)CNC(=O)c1ccc(-c2cc(C(F)(F)F)nn2-c2ccccc2Cl)cc1` [Example 1362, N-({4-[1-(2-chlorophenyl)-3-(trifluoromethyl)-1H-pyrazol-5-yl]phenyl}carbonyl)glycine] showed an EC50 of 1000 to 10000 nM.

`O=C(O)CCNC(=O)c1ccc(-c2cc(C(F)(F)F)nn2-c2ccccc2Cl)cc1` [Example 1363, N-({4-[1-(2-chlorophenyl)-3-(trifluoromethyl)-1H-pyrazol-5-yl]phenyl}carbonyl)-beta-alanine] showed an EC50 of 1000 to 10000 nM.

With `CS(=O)(=O)CCNC(=O)c1ccc(-c2cc(C(F)(F)F)nn2-c2ccccc2Cl)cc1` [Example 1364, 4-[1-(2-chlorophenyl)-3-(trifluoromethyl)-1H-pyrazol-5-yl]-N-[2-(methylsulfonyl)ethyl]benzamide] the EC50 was 1000 to 10000 nM.

With `CS(=O)(=O)CCN1CCN(C(=O)c2ccc(-c3cc(C(F)(F)F)nn3-c3ccccc3Cl)cc2)CC1` [Example 1365, 1-({4-[1-(2-chlorophenyl)-3-(trifluoromethyl)-1H-pyrazol-5-yl]phenyl}carbonyl)-4-[2-(methylsulfonyl)ethyl]piperazine] the EC50 was 1000 to 10000 nM.

For `CC(C)(O)c1nn(-c2cccc(Cl)c2F)c(-c2ccc(-c3cccc(S(C)(=O)=O)c3)s2)c1Cl` [Example 1366, 2-[4-chloro-1-(3-chloro-2-fluorophenyl)-5-{5-[3-(methylsulfonyl)phenyl]-2-thienyl}-1H-pyrazol-3-yl]propan-2-ol], the EC50 was less than 1000 nM.

With `CC(C)(O)c1nn(-c2ccccc2OC(F)(F)F)c(-c2ccc(-c3cccc(S(C)(=O)=O)c3)s2)c1Cl` [Example 1367, 2-(4-chloro-5-{5-[3-(methylsulfonyl)phenyl]-2-thienyl}-1-{2-[(trifluoromethyl)oxy]phenyl}-1H-pyrazol-3-yl)propan-2-ol] the EC50 was less than 1000 nM.

With `CC(C)(O)c1nn(-c2ccccc2Br)c(-c2ccc(-c3cccc(S(C)(=O)=O)c3)s2)c1Cl` [Example 1368, 2-[1-(2-bromophenyl)-4-chloro-5-{5-[3-(methylsulfonyl)phenyl]-2-thienyl}-1H-pyrazol-3-yl]propan-2-ol] the EC50 was less than 1000 nM.

For `CC(C)(O)c1nn(-c2cnccc2C(F)(F)F)c(-c2ccc(-c3cccc(S(C)(=O)=O)c3)s2)c1Br` [Example 1369, 2-(4-bromo-5-{5-[3-(methylsulfonyl)phenyl]-2-thienyl}-1-[4-(trifluoromethyl)pyridin-3-yl]-1H-pyrazol-3-yl)propan-2-ol], the EC50 was less than 1000 nM.

Molecule `CC(C)(O)c1nn(-c2cccc(F)c2Cl)c(-c2ccc(-c3cccc(S(C)(=O)=O)c3)s2)c1Cl` [Example 1371, 2-[4-chloro-1-(2-chloro-3-fluorophenyl)-5-{5-[3-(methylsulfonyl)phenyl]-2-thienyl}-1H-pyrazol-3-yl]propan-2-ol] has an EC50 of less than 1000 nM.

With `CC(C)(O)c1nn(-c2cccc(F)c2Cl)c(-c2ccc(-c3cccc(S(C)(=O)=O)c3)s2)c1Br` [Example 1372, 2-[4-bromo-1-(2-chloro-3-fluorophenyl)-5-{5-[3-(methylsulfonyl)phenyl]-2-thienyl}-1H-pyrazol-3-yl]propan-2-ol] the EC50 was less than 1000 nM.

`CCc1ccccc1-n1nc(C(C)(C)O)c(Cl)c1-c1ccc(-c2cccc(S(C)(=O)=O)c2)s1` [Example 1373, 2-[4-chloro-1-(2-ethylphenyl)-5-{5-[3-(methylsulfonyl)phenyl]-2-thienyl}-1H-pyrazol-3-yl]propan-2-ol] showed an EC50 of less than 1000 nM.

Work on `Cn1c(-c2cccc(S(C)(=O)=O)c2)ccc1-c1cc(C(C)(C)O)nn1-c1ccccc1Cl` [Example 1383, 2-(1-(2-chlorophenyl)-5-(1-methyl-5-(3-(methylsulfonyl)phenyl)-1H-pyrrol-2-yl)-1H-pyrazol-3-yl)propan-2-ol] yielded an EC50 of less than 1000 nM.

For `Cc1cc(-c2cccc(S(C)(=O)=O)c2)ccc1-c1cc(C(C)(C)O)nn1Cc1cccc(Cl)c1Cl` [Example 1384, 2-(1-(2,3-dichlorobenzyl)-5-(3-methyl-3′-(methylsulfonyl)biphenyl-4-yl)-1H-pyrazol-3-yl)propan-2-ol], the EC50 was less than 1000 nM.

For `CC(C)(O)c1cc(-c2ccc(-c3cccc(S(C)(=O)=O)c3)cc2Cl)n(-c2cccnc2C(F)(F)F)n1` [Example 1385, 2-(5-(3-chloro-3′-(methylsulfonyl)biphenyl-4-yl)-1-(2-(trifluoromethyl)pyridin-3-yl)-1H-pyrazol-3-yl)propan-2-ol], the EC50 was less than 1000 nM.

`Cc1cc(-c2cccc(S(C)(=O)=O)c2)ccc1-c1c(Cl)c(C(C)(C)O)nn1-c1c(Cl)cccc1Cl` [Example 1386, 2-(4-chloro-1-(2,6-dichlorophenyl)-5-(3-methyl-3′-(methylsulfonyl)biphenyl-4-yl)-1H-pyrazol-3-yl)propan-2-ol] gave an EC50 of less than 1000 nM.

With `CC(C)(O)c1nn(-c2cccnc2C(F)(F)F)c(-c2ccc(-c3cccc(S(C)(=O)=O)c3)cc2Cl)c1Cl` [Example 1387, 2-(4-chloro-5-(3-chloro-3′-(methylsulfonyl)biphenyl-4-yl)-1-(2-(trifluoromethyl)pyridin-3-yl)-1H-pyrazol-3-yl)propan-2-ol] the EC50 was less than 1000 nM.

For `CC(C)CNC(=O)c1cc(-c2ccc(-c3cccc(S(C)(=O)=O)c3)cc2Cl)n(-c2cccnc2C(F)(F)F)n1` [Example 1388, 5-(3-chloro-3′-(methylsulfonyl)biphenyl-4-yl)-N-isobutyl-1-(2-(trifluoromethyl)pyridin-3-yl)-1H-pyrazole-3-carboxamide], the EC50 was less than 1000 nM.

`CC(C)CNC(=O)c1cc(-c2ccc(-c3cccc(S(C)(=O)=O)c3)cc2Cl)n(-c2c(Cl)cccc2Cl)n1` [Example 1389, 5-(3-chloro-3′-(methylsulfonyl)biphenyl-4-yl)-1-(2,6-dichlorophenyl)-N-isobutyl-1H-pyrazole-3-carboxamide] was tested, and the EC50 was less than 1000 nM.

Work on `Cc1cc(-c2cccc(S(C)(=O)=O)c2)ccc1-c1cc(C(C)(C)O)nn1-c1cccnc1C(F)(F)F` [Example 1390, 2-(5-(3-methyl-3′-(methylsulfonyl)biphenyl-4-yl)-1-(2-(trifluoromethyl)pyridin-3-yl)-1H-pyrazol-3-yl)propan-2-ol] yielded an EC50 of less than 1000 nM.

Molecule `Cc1cc(-c2cccc(S(C)(=O)=O)c2)ccc1-c1c(Cl)c(C(C)(C)O)nn1-c1cccnc1C(F)(F)F` [Example 1391, 2-(4-chloro-5-(3-methyl-3′-(methylsulfonyl)biphenyl-4-yl)-1-(2-(trifluoromethyl)pyridin-3-yl)-1H-pyrazol-3-yl)propan-2-ol] has an EC50 of less than 1000 nM.

`Cn1c(-c2cccc(S(C)(=O)=O)c2)ccc1-c1cc(C(C)(C)O)nn1-c1c(Cl)cccc1Cl` [Example 1393, 2-(1-(2,6-dichlorophenyl)-5-(1-methyl-5-(3-(methylsulfonyl)phenyl)-1H-pyrrol-2-yl)-1H-pyrazole-3-yl)propan-2-ol] was tested, and the EC50 was 1000 to 10000 nM.

`CC(C)(O)c1cccc(-c2ccc(-c3cc(C(F)(F)F)nn3-c3c(Cl)cccc3Cl)c(Cl)c2)c1` [Example 1395, 2-(3′-chloro-4′-(1-(2,6-dichlorophenyl)-3-(trifluoromethyl)-1H-pyrazol-5-yl)biphenyl-3-yl)propan-2-ol] was tested, and the EC50 was less than 1000 nM.

`CS(=O)(=O)c1cccc(-c2ccc(-c3cc(C(=O)NCC(F)(F)F)nn3-c3c(Cl)cccc3Cl)c(Cl)c2)c1` [Example 1397, 5-(3-chloro-3′-(methylsulfonyl)biphenyl-4-yl)-1-(2,6-dichlorophenyl)-N-(2,2,2-trifluoroethyl)-1H-pyrazole-3-carboxamide] was tested, and the EC50 was less than 1000 nM.

`Cc1cc(-c2cc(C(C)(C)O)nn2-c2c(Cl)cccc2Cl)ccc1-c1cccc(S(C)(=O)=O)c1` [Example 1398, 2-(1-(2,6-dichlorophenyl)-5-(2-methyl-3′-(methylsulfonyl)biphenyl-4-yl)-1H-pyrazol-3-yl)propan-2-ol] showed an EC50 of 1000 to 10000 nM.

Source: patent US8703805B2 (Exelixis Patent Company LLC, priority 2005, dated 2014)
